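Interpolation was linear, between the two tested concentrations surrounding the appropriate level; five concentrations were tested over 48 hours in 96-well plates. The concentration for 50% growth inhibition is given as GI50. At the TGI there is no net growth.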

15 molecules from PubChem BioAssay (NCI) can be followed below.

Among the test systems are LXFL 529 NSCLC; M19-MEL melanoma; HOP-18 NSCLC; SNB-78 CNS; DLD-1 colon; DMS 114 small cell lung; RXF-631 renal; DMS 273 small cell lung; XF 498 CNS; P388/ADR leukemia; P388 leukemia.
Common to all, as to test: NCI tumour cell line growth inhibition, 48 h

For `Cc1ccc(NC(=O)CC/C(CC(=O)C(C)(C)C)=N/NC(=O)c2cc3ccccc3cc2O)cc1C`, the TGI in the test with LXFL 529 NSCLC, in the test with M19-MEL melanoma, with HOP-18 NSCLC, in the test on SNB-78 CNS, with DLD-1 colon and in the test on DMS 114 small cell lung was greater than 100 µM each time. Besides, the TGI in the test on RXF-631 renal is greater than 100 µM.
Regarding `CCC12CCC[C@@]13C=C[C@H](O3)C(C)(C)C2=O` (stereo not given in full), the TGI in the test on LXFL 529 NSCLC, in the test on DMS 273 small cell lung, with M19-MEL melanoma, in the test on HOP-18 NSCLC, with SNB-78 CNS and with DLD-1 colon was greater than 100 µM throughout. Also, the TGI in the test on DMS 114 small cell lung and in the test on RXF-631 renal was greater than 100 µM each time.
As to `COc1ccc(/C(C=O)=C(\Cl)c2ccc(OC)c(OC)c2)cc1`, the TGI with LXFL 529 NSCLC, in the test with DMS 273 small cell lung, in the test with M19-MEL melanoma, with HOP-18 NSCLC, in the test on SNB-78 CNS and in the test with DLD-1 colon was greater than 100 µM in each case. For the same molecule, the TGI was 50.2 µM in the test on XF 498 CNS, greater than 100 µM in the test with DMS 114 small cell lung and greater than 100 µM in the test on RXF-631 renal.
Take `CC1CC(c2ccccc2)=Nc2ccccc2S1` (stereo not given): the TGI in the test on LXFL 529 NSCLC, in the test on DMS 273 small cell lung, in the test on M19-MEL melanoma, with SNB-78 CNS, in the test on DLD-1 colon and in the test with XF 498 CNS was greater than 100 µM throughout. For the same molecule, the TGI with DMS 114 small cell lung and in the test on RXF-631 renal was greater than 100 µM in each case.
With `CC(C)C(NCc1c2ccccc2[n+](C)c2ccccc12)C(=O)O` (stereo not given), the TGI turned out to be 14 µM in the test with LXFL 529 NSCLC; 13.3 µM in the test with DMS 273 small cell lung; 21.2 µM in the test on M19-MEL melanoma; 18.1 µM in the test with HOP-18 NSCLC; 24.8 µM in the test on SNB-78 CNS; 13.8 µM in the test on DLD-1 colon. Moreover, the TGI amounted to 17.8 µM in the test on XF 498 CNS, 5.79 µM with DMS 114 small cell lung and 17.1 µM with RXF-631 renal.
With `COc1c(OC2OC(CO)C(O)C(O)C2O)cc2c(c1OC)-c1ccc(OC)c(=O)cc1C(NC(C)=O)CC2` (stereo not given), the TGI with LXFL 529 NSCLC, in the test on DMS 273 small cell lung, with M19-MEL melanoma, in the test on HOP-18 NSCLC, with SNB-78 CNS and in the test with DLD-1 colon was greater than 100 µM in each case. Besides, the TGI in the test with XF 498 CNS, in the test on DMS 114 small cell lung and in the test with RXF-631 renal was greater than 100 µM each time.
For `COc1cccc(/C=N/[N-]C(N)=O)c1[O-].[Cu+2].[OH3+]`, in the test with XF 498 CNS, the GI50 is 15.9 µM and the TGI worked out at 29.4 µM.
For the molecule `[C-]#[O+].[Cl][Sn]([Cl])[Cl].[Cl][Sn]([Cl])[Cl].[Pt].c1cnc2c(c1)ccc1cccnc12`, the GI50 in the test on DMS 273 small cell lung was 2.59 µM; with M19-MEL melanoma it was 3.25 µM; with P388/ADR leukemia, 1.78 µM; in the test with P388 leukemia it was 2.12 µM; in the test with HOP-18 NSCLC, 6.73 µM; in the test on SNB-78 CNS it was 15.8 µM. The GI50 in the test with XF 498 CNS is 9.1 µM; in the test on DMS 114 small cell lung, 4.14 µM. For the same molecule, the TGI was 6 µM in the test with DMS 273 small cell lung; greater than 31.6 µM in the test with M19-MEL melanoma; 5.1 µM in the test with P388/ADR leukemia; 5.68 µM in the test on P388 leukemia; greater than 100 µM with HOP-18 NSCLC; 66 µM in the test with SNB-78 CNS. For the same molecule, the TGI in the test on XF 498 CNS was 44.3 µM; in the test with DMS 114 small cell lung, greater than 39.4 µM.
For the molecule `CCOC(=O)C(Cc1ccc(N=NN(C)C)cc1)NC(=O)CC1c2ccccc2-c2ccccc21` (stereo not given), the TGI in the test on LXFL 529 NSCLC, in the test with DMS 273 small cell lung, with M19-MEL melanoma, in the test on DLD-1 colon and in the test with DMS 114 small cell lung was greater than 100 µM in each case.
With `C/C(CCN(C)C)=N/O`, the TGI turned out to be 4.72 µM with LXFL 529 NSCLC; 18.3 µM in the test with DMS 273 small cell lung; 23 µM with M19-MEL melanoma; 29.6 µM in the test with HOP-18 NSCLC; 51.7 µM in the test on SNB-78 CNS; 15.8 µM in the test on DLD-1 colon. Further, the TGI in the test on XF 498 CNS turned out to be 33.6 µM; in the test on DMS 114 small cell lung, 20.7 µM.
Consider `Cc1cc(-c2ccc(N=Nc3ccc4c(S(=O)(=O)O)cc(S(=O)(=O)O)c(N)c4c3O)c(C)c2)ccc1N=Nc1ccc2c(S(=O)(=O)O)cc(S(=O)(=O)O)c(N)c2c1O`, for which the TGI with DMS 273 small cell lung, in the test with M19-MEL melanoma, with P388/ADR leukemia, with P388 leukemia, in the test on HOP-18 NSCLC and in the test on SNB-78 CNS was greater than 100 µM in each case. Also, the TGI in the test on DLD-1 colon, in the test on XF 498 CNS and with DMS 114 small cell lung was greater than 100 µM throughout. The GI50 with HOP-18 NSCLC was greater than 100 µM.
As for `CN1C(c2ccccc2)CC(O)CC1c1ccccc1` (stereo not given), the TGI in the test on LXFL 529 NSCLC, with DMS 273 small cell lung, in the test with M19-MEL melanoma, in the test with SNB-78 CNS, with DLD-1 colon and in the test with DMS 114 small cell lung was greater than 100 µM in each case.
In the case of `O=C(O)C1CCC(=O)N1C(=O)COc1cc(Cl)c(Cl)cc1Cl` (stereo not given), the TGI in the test on LXFL 529 NSCLC, in the test with DMS 273 small cell lung, with M19-MEL melanoma, in the test on SNB-78 CNS, in the test with XF 498 CNS and in the test on DMS 114 small cell lung was greater than 100 µM in each case. For the same molecule, the TGI with RXF-631 renal was greater than 100 µM.
In the case of `COCOC1CCCC[C@@]1(OCCOCCO[C@@]1(c2ccccc2)CCCC[C@H]1OCOC)c1ccccc1` (stereo not given in full), the TGI with LXFL 529 NSCLC, in the test with DMS 273 small cell lung, with M19-MEL melanoma, in the test with HOP-18 NSCLC, with SNB-78 CNS and with DLD-1 colon was greater than 100 µM each time. The TGI in the test on XF 498 CNS and in the test with DMS 114 small cell lung was greater than 100 µM throughout.
Turning to `COCc1cc2c(s1)C(=O)C1=C(C2=O)C2(C=C(Br)C(=O)C(Br)=C2)CCN1`, the TGI in the test with LXFL 529 NSCLC was determined as 11.7 µM; in the test on DMS 273 small cell lung it was 13.6 µM; in the test on M19-MEL melanoma, 2.77 µM; in the test on HOP-18 NSCLC, 28.4 µM; in the test on SNB-78 CNS, 24.4 µM; in the test on DLD-1 colon it was 24.4 µM. Moreover, the TGI with XF 498 CNS was 19.6 µM; in the test on DMS 114 small cell lung it was 3.34 µM.
